Where two headings read alike, the source gives them in different places.
What was measured:
TYK2 JH2 = target: T1, TYK2 JH2 (Homo sapiens, UniProt P29597); assay: TYK2 JH2 binding assay (KINOMEscan KdELECT competitive binding); conditions: TYK2 JH2 domain
T1 construct: purchased DiscoverX (KINOMEscan KdELECT service); host or cells: E. coli BL21-derived (T7 phage display) or HEK-293
Outline: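 The assay measures displacement of DNA- or phage-tagged TYK2 pseudokinase domain from an affinity resin; compound binding lowers the amount captured, read by qPCR. Incubation lasts 1 h at room temperature.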

[1] = system: JAK1/TYK2 pSTAT5 (Tyr694/699) in THP-1 cell line; assay: IFNa-stimulated JAK1/TYK2 pSTAT5 (Tyr694/699) inhibition cellular assay, AlphaLISA; type: cell-based; conditions: Homo sapiens, THP-1 cells, AlphaLISA (Assay B)
Outline: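 Compound dilutions were dispensed first, and HBSS-suspended THP-1 cells were added on top (final top concentration 10000 nM, 6-fold series). After 1 h at 37 °C, IFNa (100 ng/mL as added) was applied for 30 min. Cells were then lysed and pSTAT5 was quantified by AlphaLISA.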

[2] = KINOMEscan KdELECT (Assay A), read-out: Biochemical TYK2_JH2_Kd
[3] = IFNa-stimulated, read-out: Cellular THP1_IFNa-pSTATS_IC50
[4] = KINOMEscan KdELECT (Assay A), read-out: Biochemical TYK2_DiscoverX_JH2_BND_Kd
[5] = IFNa-stimulated, read-out: Cellular_THP1_IFNa-pSTATS_TYK2
[6] = DiscoverX KINOMEscan KdELECT (Assay A), read-out: Biochemical TYK2_DiscoverX_JH2_BND_Kd
[7] = IFNa-stimulated pSTAT5 (Tyr694/699), read-out: Cellular_THP1_IFNa-pSTATS_TYK2

T1 sequence (P29597 589-875 limits assumed): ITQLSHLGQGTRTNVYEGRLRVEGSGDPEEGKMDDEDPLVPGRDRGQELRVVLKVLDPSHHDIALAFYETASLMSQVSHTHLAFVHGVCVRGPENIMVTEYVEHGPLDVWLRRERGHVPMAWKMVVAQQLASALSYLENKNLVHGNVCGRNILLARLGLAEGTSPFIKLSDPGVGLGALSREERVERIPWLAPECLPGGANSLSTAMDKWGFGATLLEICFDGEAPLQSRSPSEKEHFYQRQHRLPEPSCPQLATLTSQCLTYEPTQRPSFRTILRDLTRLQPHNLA

SMILES | Kd (TYK2 JH2; [4]) | IC50 [1, 5] | Kd (TYK2 JH2; [6]) | other results
CNc1ncc(-c2ccccc2)c2cc(NCC(F)(F)F)ncc12 [Example 94, N^1-methyl-4-phenyl-N^6-(2,2,2-trifluoroethyl)-2,7-naphthyridine-1,6-diamine] | – | – | – | Kd (TYK2 JH2; [2]): 100 to 1000 nM; IC50 [1, 3]: > 500 nM
CNc1ncc(C#Cc2ccc(C3CCN(C)C3=O)cc2)c2cc(NC(=O)C3CC3)ncc12 (centres unmarked) [Example 896, N-(5-((4-(1-methyl-2-oxopyrrolidin-3-yl)phenyl)ethynyl)-8-(methylamino)-2,7-naphthyridin-3-yl)cyclopropanecarboxamide] | ≤ 100 nM | ≤ 500 nM | – | –
CNc1ncc(-c2nc3cc(N4C[C@@H](C)O[C@@H](C)C4)ccc3o2)c2cc(NC(=O)C3CC3)ncc12 [Example 315, N-(5-(5-((2R,6S)~2,6-dimethylmorpholino)benzo[d]oxazol-2-yl)-8-(methylamino)-2,7-naphthyridin-3-yl)cyclopropanecarboxamide] | – | ≤ 500 nM | ≤ 100 nM | –
CNc1ncc(C#Cc2ccc(OC)cn2)c2cc(NC(=O)[C@H]3C[C@H]3C(F)(F)F)ncc12 (single isomer, unassigned) [Example 747] | ≤ 100 nM | ≤ 500 nM | – | –
CNc1ncc(C#Cc2ncccc2C2CC2)c2cc(NC(=O)C3CC3)ncc12 [Example 955, N-(5-((3-cyclopropylpyridin-2-yl)ethynyl)-8-(methylamino)-2,7-naphthyridin-3-yl)cyclopropanecarboxamide] | ≤ 100 nM | ≤ 500 nM | – | –
CNc1ncc(C#Cc2ccc(OC[C@H]3COCCO3)cc2)c2cc(NC(=O)C3CC3)ncc12 [Example 741, (R)—N-(5-((4-((1,4-dioxan-2-yl)methoxy)phenyl)ethynyl)-8-(methylamino)-2,7-naphthyridin-3-yl)cyclopropanecarboxamide] | ≤ 100 nM | ≤ 500 nM | – | –
CNc1ncc(-c2ccccc2)c2cc(Nc3ccccn3)ncc12 [Example 92, N^1-methyl-4-phenyl-N^6-(pyridin-2-yl)-2,7-naphthyridine-1,6-diamine] | – | – | – | Kd (TYK2 JH2; [2]): ≤ 100 nM; IC50 [1, 3]: > 500 nM
CNc1ncc(-c2conc2C)c2cc(NC(=O)C3CC3)ncc12 [Example 36, N-(8-(methylamino)-5-(3-methylisoxazol-4-yl)-2,7-naphthyridin-3-yl)cyclopropanecarboxamide] | – | – | – | Kd (TYK2 JH2; [2]): ≤ 100 nM; IC50 [1, 3]: > 500 nM
CNc1ncc(C#Cc2ccc3nc(COC)n(C)c3c2)c2cc(NC(=O)C3CC3)ncc12 [Example 692, N-(5-((2-(methoxymethyl)-1-methyl-1H-benzoimidazol-6-yl)ethynyl)-8-(methylamino)-2,7-naphthyridin-3-yl)cyclopropanecarboxamide] | ≤ 100 nM | ≤ 500 nM | – | –
CNc1ncc(-c2nc3cccc(Cc4cocn4)c3o2)c2cc(NC(=O)C3CC3)ncc12 [Example 271, N-(8-(methylamino)-5-(7-(oxazol-4-ylmethyl)benzo[d]oxazol-2-yl)-2,7-naphthyridin-3-yl)cyclopropanecarboxamide] | – | ≤ 500 nM | ≤ 100 nM | –
CNc1ncc(Cc2ccc(OC)cc2)c2cc(NC(=O)C3CC3)ncc12 [Example 34, N-(5-(4-methoxybenzyl)-8-(methylamino)-2,7-naphthyridin-3-yl)cyclopropanecarboxamide] | – | – | – | Kd (TYK2 JH2; [2]): 100 to 1000 nM; IC50 [1, 3]: > 500 nM
CNc1ncc(C#Cc2ccc(-n3c(=O)ccn3C)cc2)c2cc(NC(=O)C3CC3)ncc12 [Example 962, N-[8-(methylamino)-5-[2-[4-(2-methyl-5-oxo-pyrazol-1-yl)phenyl]ethynyl]-2,7-naphthyridin-3-yl]cyclopropanecarboxamide] | ≤ 100 nM | ≤ 500 nM | – | –
CNc1ncc(CO)c2cc(NC(=O)C3CC3)ncc12 [Example 44, N-(5-(hydroxymethyl)-8-(methylamino)-2,7-naphthyridin-3-yl)cyclopropanecarboxamide] | – | – | – | Kd (TYK2 JH2; [2]): ≤ 100 nM; IC50 [1, 3]: > 500 nM
[2H]C([2H])([2H])Nc1ncc(-c2nc3c(OC)cccc3o2)c2cc(NC(=O)C3CC3)ncc12 [Example 363, N-(5-(4-methoxybenzo[d]oxazol-2-yl)-8-((methyl-d3)amino)-2,7-naphthyridin-3-yl)cyclopropanecarboxamide] | – | ≤ 500 nM | ≤ 100 nM | –
CNc1ncc(-c2nc3cc(N4CC(C)(OC)C4)ccc3o2)c2cc(NC(=O)C3CC3)ncc12 [Example 286, N-(5-(5-(3-methoxy-3-methylazetidin-1-yl)benzo[d]oxazol-2-yl)-8-(methylamino)-2,7-naphthyridin-3-yl)cyclopropanecarboxamide] | – | ≤ 500 nM | ≤ 100 nM | –
CNc1ncc(-c2nc3cccc(N4CCC4CO)c3o2)c2cc(NC(=O)C3CC3)ncc12 (centres unmarked) [Example 265, N-(5-(7-(2-(hydroxymethyl)azetidin-t-yl)benzo[d]oxazol-2-yl)-8-(methylamino)-2,7-naphthyridin-3-yl)cyclopropanecarboxamide] | – | ≤ 500 nM | ≤ 100 nM | –
CNc1ncc(-c2ccc(Cn3ccc(=O)cc3)cc2)c2cc(NC(=O)C3CC3)ncc12 [Example 869, N-(8-(methylamino)-5-(4-((4-oxopyridin-1(4H)-yl)methyl)phenyl)-2,7-naphthyridin-3-yl)cyclopropanecarboxamide] | ≤ 100 nM | > 500 nM | – | –
CNc1ncc(C#Cc2ccc3c(c2)OC[C@@H](COC)O3)c2cc(NC(=O)C3CC3)ncc12 (single isomer, unassigned) [Example 699] | ≤ 100 nM | ≤ 500 nM | – | –
CNc1ncc(C#Cc2ccc(OC)cn2)c2cc(NC(=O)[C@H]3C[C@H]3C)ncc12 [Example 742, (1S,2R)—N-(5-((5-methoxypyridin-2-yl)ethynyl)-8-(methylamino)-2,7-naphthyridin-3-yl)-2-methylcyclopropane-1-carboxamide] | ≤ 100 nM | ≤ 500 nM | – | –

More lines, main results first:

Kd (TYK2 JH2; [4]) | IC50 [1, 5] | Kd (TYK2 JH2; [6]) | SMILES | other results
≤ 100 nM | ≤ 500 nM | – | CNc1ncc(-c2nc3cc(N4CCO[C@@H](C(F)(F)F)C4)ccc3o2)c2cc(NC(=O)C3CC3)ncc12 (single isomer, unassigned) [Example 922] | –
– | ≤ 500 nM | ≤ 100 nM | CNc1ncc(-c2nc3ccc(OC4CC4)cn3n2)c2cc(NC(=O)C3CC3)ncc12 [Example 494, N-(5-(6-cyclopropoxy-[1,2,4]triazolo[1,5-a]pyridin-2-yl)-8-(methylamino)-2,7-naphthyridin-3-yl)cyclopropanecarboxamide] | –
≤ 100 nM | – | – | CNc1ncc(-c2nc3ccc(N4CCOC(COC)C4)cn3n2)c2cc(NC(=O)C3CC3)ncc12 (centres unmarked) [Example 1022, N-(5-(6-(2-(methoxymethyl)morpholino)-[1,2,4]triazolo[1,5-a]pyridin-2-yl)-8-(methylamino)-2,7-naphthyridin-3-yl)cyclopropanecarboxamide] | IC50 [1, 7]: ≤ 500 nM
– | ≤ 500 nM | ≤ 100 nM | CNc1ncc(-c2nc3ccc(N4CCOCC4)cc3o2)c2cc(NC(=O)C3CC3)ncc12 [Example 355, N-(8-(methylamino)-5-(6-morpholinobenzo[d]oxazol-2-yl)-2,7-naphthyridin-3-yl)cyclopropanecarboxamide] | –
≤ 100 nM | – | – | CNc1ncc(-c2nc3ccc(N4CCOCC4)cn3n2)c2cc(NC(=O)C3(C(F)F)CC3)ncc12 [Example 1072, 1-(difluoromethyl)-N-[8-(methylamino)-5-(6-morpholino-[1,2,4]triazolo[1,5-a]pyridin-2-yl)-2,7-naphthyridin-3-yl]cyclopropanecarboxamide] | IC50 [1, 7]: ≤ 500 nM
– | ≤ 500 nM | ≤ 100 nM | CNc1ncc(-c2nc3ccc(N4CCOCC4)cn3n2)c2cc(NC(=O)[C@@H]3C[C@@H]3C)ncc12 [Example 530, (1R,2S)-2-methyl-N-(8-(methylamino)-5-(6-morpholino-[1,2,4]triazolo[1,5-a]pyridin-2-yl)-2,7-naphthyridin-3-yl)cycloproapne-1-carboxamide] | –
≤ 100 nM | – | – | CNc1ncc(-c2nc3cc(N4CCOC(C(F)F)C4)ccc3o2)c2cc(NC(=O)[C@H]3C[C@H]3C)ncc12 (stereo partly drawn) [Example 1057, (1S,2R)—N-(5-(5-(2-(difluoromethyl)morpholino)benzo[d]oxazol-2-yl)-8-(methylamino)-2,7-naphthyridin-3-yl)-2-methylcyclopropane-1-carboxamide] | IC50 [1, 7]: ≤ 500 nM
– | ≤ 500 nM | ≤ 100 nM | CNc1ncc(-c2nc3ccc(N4CC5COCC(C5)C4)cn3n2)c2cc(NC(=O)C3CC3)ncc12 [Example 583, N-(5-(6-(3-oxa-7-azabicyclo[3.3.1]nonan-7-yl)-[1,2,4]triazolo[1,5-a]pyridin-2-yl)-8-(methylamino)-2,7-naphthyridin-3-yl)cyclopropanecarboxamide] | –
– | ≤ 500 nM | ≤ 100 nM | CNc1ncc(-c2nc3ccc(N4CC5CC(CN(C)C5)C4)cn3n2)c2cc(NC(=O)C3CC3)ncc12 [Example 502, N-(5-(6-(7-methyl-3,7-diazabicyclo[3.3.1]nonan-3-yl)-[1,2,4]triazolo[1,5-a]pyridin-2-yl)-8-(methylamino)-2,7-naphthyridin-3-yl)cyclopropanecarboxamide] | –

— patent US20240025906A1 (NEURON23, INC., priority 2022, published 2024)
